Results as given in PMC7413254 (Nature Communications, 2020).
Where no end group is shown, it is not given here.

Experiments:
[1] = target: T1, PfCRT^7G8 in C6^7G8 parasites (Plasmodium falciparum, UniProt Q8IBZ9, A220S/C72S/I351M/I356L/K76T/N326D); experiment: P. falciparum H+-efflux assay (rate of DV alkalinisation after concanamycin A); format: cell-based; settings: C67G8; for Effect on rate of DV alkalinisation / H+ leak (in words): test solute 10 μM
T1 construct: PfCRT also functions as a peptide transporter within its native environment of the DV membrane; expressed in transfected cells; host or cells: P. falciparum pfcrt transfectant line C6^7G8 (saponin-isolated trophozoites)
T1 sequence (Q8IBZ9 1-424 C72S/K76T/A220S/N326D/I351M/I356L): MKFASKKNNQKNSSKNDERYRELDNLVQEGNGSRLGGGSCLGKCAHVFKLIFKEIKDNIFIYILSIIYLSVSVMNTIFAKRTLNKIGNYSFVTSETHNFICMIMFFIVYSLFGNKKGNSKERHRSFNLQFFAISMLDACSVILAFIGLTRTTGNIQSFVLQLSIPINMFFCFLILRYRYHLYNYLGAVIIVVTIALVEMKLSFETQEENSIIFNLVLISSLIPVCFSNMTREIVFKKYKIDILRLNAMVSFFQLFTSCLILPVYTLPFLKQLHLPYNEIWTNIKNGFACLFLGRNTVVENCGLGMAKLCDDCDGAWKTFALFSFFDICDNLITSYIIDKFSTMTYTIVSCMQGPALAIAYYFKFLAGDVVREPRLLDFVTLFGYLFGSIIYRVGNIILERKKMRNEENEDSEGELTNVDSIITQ

PfNT1 = target: T2, PfNT1 (Plasmodium falciparum, UniProt Q8IDM6); experiment: [3H]VF-6 transport (efflux) from injected Xenopus oocytes; format: cell-based; settings: trans-inhibition, treatment 45 mM
T2 construct: expressed in transfected cells; host or cells: Xenopus laevis oocytes (stage V-VI), cRNA-injected
T2 sequence (Q8IDM6 whole entry): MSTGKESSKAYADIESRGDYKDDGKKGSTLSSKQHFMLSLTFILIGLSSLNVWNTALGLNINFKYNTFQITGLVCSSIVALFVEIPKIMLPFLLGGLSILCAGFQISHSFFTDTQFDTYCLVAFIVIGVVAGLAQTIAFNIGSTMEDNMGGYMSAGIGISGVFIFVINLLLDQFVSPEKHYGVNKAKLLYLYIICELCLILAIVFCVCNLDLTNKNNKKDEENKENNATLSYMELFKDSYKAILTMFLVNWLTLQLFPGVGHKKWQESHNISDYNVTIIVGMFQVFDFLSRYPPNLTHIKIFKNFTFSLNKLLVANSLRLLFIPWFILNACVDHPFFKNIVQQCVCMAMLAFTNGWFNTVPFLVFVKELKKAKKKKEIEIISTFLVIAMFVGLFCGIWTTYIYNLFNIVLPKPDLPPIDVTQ

non-expressing oocytes = experiment: as above; format: cell-based, Xenopus laevis; settings: trans-inhibition, treatment 45 mM
Description: The characterisation of [^3H]VF-6 transport via 23 different field and laboratory-derived isoforms of PfCRT was undertaken with oocytes two days post-cRNA-injection (Figs. 3a–j, 4; Supplementary Fig. 2). The oocytes were injected with 25 nL of ND96 buffer (pH 5.5) supplemented with [^3H]VF-6 and unlabelled VF-6 to achieve estimated intracellular concentrations of 1.4 and 200 μM, respectively. Ten oocytes that had resealed at the injection site were transferred to a 5 mL polystyrene round bottom tube (In Vitro Technologies) and washed with 3.5 mL of ND96 buffer before being transferred to separate wells of a white 96-well plate (PerkinElmer). This treatment served to establish the amount of radioactivity within the oocytes immediately prior to the commencement of the transport assay. Another 10 resealed oocytes were transferred to a 5 mL tube and washed with 3.5 mL of ND96 buffer. The assay commenced with the addition of 100 μL of ND96 buffer and the oocytes were incubated at 27.5 °C for 1.5 h (unless specified otherwise; Fig. 3b). The assay was terminated by removing the reaction buffer with a pipette and washing the oocytes twice with 3.5 mL of ice-cold ND96 buffer. Each oocyte was transferred to a separate well of a white 96-well plate. The oocytes were lysed by the addition of 20 μL of 10% (w/v) SDS and overnight incubation at room temperature. The lysed oocyte was then combined with 150 μL of MicroScint-40 microscintillant (PerkinElmer), the plate covered with a TopSeal-A (PerkinElmer), and the radioactivity measured with a MicroBeta^2 microplate liquid scintillation analyser (PerkinElmer). VF-6 transport was calculated by subtracting the amount of radioactivity (measured in counts per minute) present within the oocytes at the end of the incubation from that measured in the oocytes sampled immediately before the commencement of the assay. The pH-dependence of transport (Fig. 3c) was determined by injecting the oocytes with [^3H]VF-6 suspended in 25 nL ND96 buffer adjusted to pH 5.0, 5.5, 6.0 or 7.0, which corresponded to the injection of 2.5–250 fmol of H^+. The dependence of [^3H]VF-6 transport on Na^+ or Cl^− was examined by injecting the oocytes with [^3H]VF-6 suspended in the control ND96 buffer (pH 5.5) or a version of this buffer that lacked either Na^+ or Cl^− (Supplementary Fig. 2). Na^+ was replaced with 96 mM of KCl and Cl^− was replaced with gluconate salts of Na^+ (NaC6H11O7; 96 mM), K^+ (KC6H11O7; 2 mM), Mg^2+ (MgC12H22O14; 1 mM) and Ca^2+ (CaC12H22O14; 1.8 mM). The dependence of peptide transport on Ca^2+ was determined by injecting the oocytes with [^3H]VF-6 suspended in ND96 buffers that contained different concentrations of Ca^2+ (0–5 mM; Supplementary Fig. 2). […] The dependence of PfCRT-mediated transport on the membrane potential was examined by using (1) Na^+ ionophore III in conjunction with the Na^+ gradients listed in Supplementary Data 7 and (2) Cl^− ionophore III in conjunction with the Cl^− gradients listed in Supplementary Data 7 to clamp the membrane potential of the oocyte from −80 to +80 mV. […] The kinetic parameters for VF-6 transport via different isoforms of PfCRT (Figs. 3e and 4a) were determined in SigmaPlot Windows Version 11.0 by a least-squares fit of the Michaelis–Menten equation to the data.
A subset of assays measured the ability of solutes known to interact with PfCRT to either cis-inhibit, trans-inhibit or trans-stimulate [^3H]VF-6 transport. These experiments involved adding these solutes to either the cis- or trans-side of the membrane relative to [^3H]VF-6. […] At least five independent experiments were performed (on different days and using oocytes from different frogs), and within each experiment measurements were made from ten oocytes per treatment.

Compound | Maximum rate of peptide mimic-induced DV alkalinization ([1]; mean ± SEM, n = 5, SEM) | Effect on rate of DV alkalinisation / H+ leak (in words) [1] | [3H]VF-6 transport, PfNT1 (% PfCRT3D7 control) (PfNT1; Experiment 1) | [3H]VF-6 transport, PfNT1 (% PfCRT3D7 control) (PfNT1; Experiment 2) | [3H]VF-6 transport, PfNT1 (% PfCRT3D7 control) (PfNT1; Experiment 3) | [3H]VF-6 transport, PfNT1 (% PfCRT3D7 control) (PfNT1; Experiment 4) | [3H]VF-6 transport, PfNT1 (% PfCRT3D7 control) (PfNT1; Experiment 5) | [3H]VF-6 transport, non-expressing oocytes (% PfCRT3D7 control) (non-expressing oocytes; Experiment 1) | [3H]VF-6 transport, non-expressing oocytes (% PfCRT3D7 control) (non-expressing oocytes; Experiment 2) | [3H]VF-6 transport, non-expressing oocytes (% PfCRT3D7 control) (non-expressing oocytes; Experiment 3) | [3H]VF-6 transport, non-expressing oocytes (% PfCRT3D7 control) (non-expressing oocytes; Experiment 4) | [3H]VF-6 transport, non-expressing oocytes (% PfCRT3D7 control) (non-expressing oocytes; Experiment 5)
CC(C)(C)NC(=O)[C@@H]1C[C@@H]2CCCC[C@@H]2CN1C[C@@H](O)[C@H](Cc1ccccc1)NC(=O)[C@H](CC(N)=O)NC(=O)c1ccc2ccccc2n1 [Saquinavir, saquinavir, reference compound] | 0.022 ±0.004 fluorescence ratio/s | increased the rate of DV alkalinisation |  |  |  |  |  |  |  |  |  | 
N[C@@H](Cc1c[nH]cn1)C(=O)O [L-histidine] |  | without effect |  |  |  |  |  |  |  |  |  | 
DPVN [VF-6-derived peptide] |  |  | 3.26 % PfCRT3D7 control | 3.27 % PfCRT3D7 control | 3.74 % PfCRT3D7 control | 3.42 % PfCRT3D7 control | 3.57 % PfCRT3D7 control | 3.68 % PfCRT3D7 control | 3.18 % PfCRT3D7 control | 3.95 % PfCRT3D7 control | 3.69 % PfCRT3D7 control | 3.36 % PfCRT3D7 control
DPVNF [VF-6-derived peptide] |  |  | 3.26 % PfCRT3D7 control | 3.36 % PfCRT3D7 control | 3.25 % PfCRT3D7 control | 3.79 % PfCRT3D7 control | 3.25 % PfCRT3D7 control | 3.25 % PfCRT3D7 control | 3.26 % PfCRT3D7 control | 3.78 % PfCRT3D7 control | 3.25 % PfCRT3D7 control | 3.35 % PfCRT3D7 control
CCN(CC)CCCC(C)Nc1ccnc2cc(Cl)ccc12 (stereo not shown) [CQ, chloroquine, reference compound] |  | increase |  |  |  |  |  |  |  |  |  | 
VDPVNF [VF-6] |  |  | 3.58 % PfCRT3D7 control | 3.28 % PfCRT3D7 control | 3.22 % PfCRT3D7 control | 4.26 % PfCRT3D7 control | 4.11 % PfCRT3D7 control |  |  |  |  | 
VDPVN [VF-6-derived peptide] |  |  | 3.27 % PfCRT3D7 control | 3.32 % PfCRT3D7 control | 3.39 % PfCRT3D7 control | 3.68 % PfCRT3D7 control | 3.32 % PfCRT3D7 control | 3.62 % PfCRT3D7 control | 3.95 % PfCRT3D7 control | 3.26 % PfCRT3D7 control | 3.58 % PfCRT3D7 control | 3.77 % PfCRT3D7 control
PVNF [VF-6-derived peptide] |  |  | 4.26 % PfCRT3D7 control | 4.27 % PfCRT3D7 control | 4.41 % PfCRT3D7 control | 3.17 % PfCRT3D7 control | 4.26 % PfCRT3D7 control | 4.26 % PfCRT3D7 control | 4.58 % PfCRT3D7 control | 4.28 % PfCRT3D7 control | 4.2 % PfCRT3D7 control | 3.58 % PfCRT3D7 control
